Patent US9206130B2, “Quinoline derivatives as AXL kinase inhibitors” (Max-Planck-Gesellschaft zur Förderung der Wissenschaften …, priority 2008, dated 2015)

Tests used:
[1] = target: T1, wild type AXL (wtAXL) receptor tyrosine kinase (Homo sapiens, UniProt P30530); test: NIH-3T3-AXL cellular tyrosine kinase assay (inhibition of AXL phosphorylation); assay type: cell-based; conditions: AXL phosphorylation in NIH-3T3-AXL (clone 22) cells, serum-depleted, 2 h with compound, immunoprecipitation / anti-phosphotyrosine blot
T1 construct: WtAXL cDNA was cloned into vector pLXSN(ESK) and transfected into Phoenix E packaging cells; expressed in transfected cells; host or cells: NIH3T3 N7 mouse fibroblasts, retrovirally infected (clone 22)
T1 sequence (P30530 26-894): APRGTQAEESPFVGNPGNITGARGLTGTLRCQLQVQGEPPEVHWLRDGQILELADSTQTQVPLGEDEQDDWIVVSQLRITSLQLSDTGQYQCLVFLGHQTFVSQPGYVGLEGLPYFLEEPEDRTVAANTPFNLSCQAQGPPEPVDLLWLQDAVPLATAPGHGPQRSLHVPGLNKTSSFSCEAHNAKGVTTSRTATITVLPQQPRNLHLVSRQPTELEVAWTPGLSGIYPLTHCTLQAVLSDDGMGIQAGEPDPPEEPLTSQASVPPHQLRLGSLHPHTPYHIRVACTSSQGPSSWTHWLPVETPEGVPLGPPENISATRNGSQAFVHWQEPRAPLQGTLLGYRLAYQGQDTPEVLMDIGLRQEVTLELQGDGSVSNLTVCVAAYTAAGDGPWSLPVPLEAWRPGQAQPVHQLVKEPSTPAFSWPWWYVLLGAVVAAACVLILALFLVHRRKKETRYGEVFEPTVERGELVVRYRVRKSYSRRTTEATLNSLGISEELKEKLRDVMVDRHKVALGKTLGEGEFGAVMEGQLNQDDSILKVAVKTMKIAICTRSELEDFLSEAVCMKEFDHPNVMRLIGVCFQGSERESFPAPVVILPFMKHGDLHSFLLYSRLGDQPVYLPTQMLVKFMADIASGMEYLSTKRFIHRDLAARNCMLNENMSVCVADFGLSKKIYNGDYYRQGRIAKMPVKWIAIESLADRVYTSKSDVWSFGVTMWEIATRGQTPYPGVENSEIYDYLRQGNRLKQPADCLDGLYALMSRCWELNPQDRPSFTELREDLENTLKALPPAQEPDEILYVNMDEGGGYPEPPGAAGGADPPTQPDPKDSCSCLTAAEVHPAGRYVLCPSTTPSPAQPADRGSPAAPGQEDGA
Outline: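 NIH3T3 clones stably expressing human wtAXL (puromycin-selected) were exposed to serially diluted compounds for 2 h. AXL was immunoprecipitated from lysates with anti-AXL antibody, and phosphorylation detected by anti-phosphotyrosine (4G10) western blot with ECL.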

Row | Structure (SMILES) | melting point [°C] | IC50 [1] [µM]
1 | COc1cc2nccc(Oc3ccc(NS(=O)(=O)c4ccc(Cl)cc4F)c(F)c3)c2cc1OC [Example A13, 4-Chloro-N-[4-(6,7-dimethoxy-quinolin-4-yloxy)-2-fluoro-phenyl]-2-fluoro-benzenesulfonamide] | 218 to 219 | 2.9
2 | COc1cc2c(Oc3ccc(NS(=O)(=O)c4cccc(-c5ccccc5)c4)cc3F)ccnc2cc1OCCN1CCOCC1 [Example D04, Biphenyl-3-sulfonic acid {3-fluoro-4-[6-methoxy-7-(2-morpholin-4-yl-ethoxy)-quinolin-4-yloxy]-phenyl}-amide] | 103 to 104 | 0.32
3 | COc1cc2nccc(Oc3ccc(NS(=O)(=O)c4cc(C)ccc4NC(C)=O)cc3)c2cc1OC [Example A65, N-{2-[4-(6,7-Dimethoxy-quinolin-4-yloxy)-phenylsulfamoyl]-4-methyl-phenyl}-acetamide] | 134 to 136 | > 10
4 | COc1cc2nccc(Oc3ccc(NS(=O)(=O)c4cccc(Oc5ccccc5)c4)cc3OC)c2cc1OC [Example A120, N-[4-(6,7-Dimethoxy-quinolin-4-yloxy)-3-methoxy-phenyl]-3-phenoxy-benzenesulfonamide] | 106 to 107 | > 10
5 | COc1cc2nccc(Oc3ccc(NS(=O)(=O)c4ccccc4F)c(F)c3)c2cc1OC [Example A59, N-[4-(6,7-Dimethoxy-quinolin-4-yloxy)-2-fluoro-phenyl]-2-fluoro-benzenesulfonamide] | 235 to 236 | > 1
6 | COc1cc2nccc(Oc3ccc(NS(=O)(=O)c4ccc(C)c(F)c4)c(F)c3)c2cc1OC [Example A6, N-[4-(6,7-Dimethoxy-quinolin-4-yloxy)-2-fluoro-phenyl]-3-fluoro-4-methyl-benzenesulfonamide] | 211 to 212 | 4.3
7 | Cc1cc(Oc2ccc(NS(=O)(=O)c3cccc(C(F)(F)F)c3)c(F)c2)c2cc(F)ccc2n1 [Example B8, N-[2-Fluoro-4-(6-fluoro-2-methyl-quinolin-4-yloxy)-phenyl]-3-trifluoromethyl-benzenesulfonamide] | 150 to 152 | > 10
8 | COc1cc2nccc(Oc3ccc(NS(=O)(=O)c4cc(F)ccc4F)cc3)c2cc1OC [Example A118, N-[4-(6,7-Dimethoxy-quinolin-4-yloxy)-phenyl]-2,5-difluoro-benzenesulfonamide] | 260 to 263 | 0.54
9 | COc1cc2nccc(Oc3ccc(NS(=O)(=O)c4cn(C)cn4)c(F)c3)c2cc1OC [Example A32, 1-Methyl-1H-imidazole-4-sulfonic acid [4-(6,7-dimethoxy-quinolin-4-yloxy)-2-fluoro-phenyl]-amide] | 215 to 217 | > 10
10 | COc1cc2nccc(Oc3ccc(NS(=O)(=O)c4cccc(Oc5ccccc5)c4)c(C)c3)c2cc1OC [Example A90, N-[4-(6,7-Dimethoxy-quinolin-4-yloxy)-2-methyl-phenyl]-3-phenoxy-benzenesulfonamide] | 169 to 170 | > 10
11 | Cc1cc(Oc2ccc(NS(=O)(=O)c3ccccc3)cc2)c2cc(F)ccc2n1 [Example B9, N-[4-(6-Fluoro-2-methyl-quinolin-4-yloxy)-phenyl]-benzenesulfonamide] | 207 to 208 | > 10
12 | Cc1cc(Oc2ccc(NS(=O)(=O)c3c(F)cccc3F)c(F)c2)c2cc(F)ccc2n1 [Example B6, 2,6-Difluoro-N-[2-fluoro-4-(6-fluoro-2-methyl-quinolin-4-yloxy)-phenyl]-benzenesulfonamide] | 188 to 190 | > 10
13 | COc1cc2nccc(Oc3ccc(NS(=O)(=O)c4cnc(C)[nH]4)cc3)c2cc1OC [Example A80, 2-Methyl-3H-imidazole-4-sulfonic acid [4-(6,7-dimethoxy-quinolin-4-yloxy)-phenyl]-amide] | 268 to 269 | > 10

Now from value to molecule:

Row | melting point [°C] | IC50 [1] [µM] | Structure (SMILES)
14 | 232 to 234 | > 1 | COc1cc2nccc(Oc3ccc(NS(=O)(=O)c4ccccc4Cl)c(F)c3)c2cc1OC [Example A54, 2-Chloro-N-[4-(6,7-dimethoxy-quinolin-4-yloxy)-2-fluoro-phenyl]-benzenesulfonamide]
15 | 233 to 235 | > 10 | COc1cc2nccc(Oc3ccc(NS(=O)(=O)c4cccc5ccccc45)c(C)c3)c2cc1OC [Example A91, Naphthalene-1-sulfonic acid [4-(6,7-dimethoxy-quinolin-4-yloxy)-2-methyl-phenyl]-amide]
16 | 193 to 195 | 0.43 | COc1cc2nccc(Oc3ccc(NS(=O)(=O)c4cccc(-c5ccccc5)c4)c(F)c3)c2cc1OC [Example A34, Biphenyl-3-sulfonic acid [4-(6,7-dimethoxy-quinolin-4-yloxy)-2-fluoro-phenyl]-amide]
17 | 164 to 166 | > 3 | CCCCS(=O)(=O)Nc1ccc(Oc2ccnc3cc(OC)c(OC)cc23)cc1F [Example A71, Butane-1-sulfonic acid [4-(6,7-dimethoxy-quinolin-4-yloxy)-2-fluoro-phenyl]-amide]
18 | 197 to 200 | > 1 | COc1cc2nccc(Oc3ccc(NS(=O)(=O)c4cccc(-c5ccccc5)c4)cc3)c2cc1OC [Example A86, Biphenyl-3-sulfonic acid [4-(6,7-dimethoxy-quinolin-4-yloxy)-phenyl]-amide]
19 | 225 to 226 | > 10 | Cc1cc(Oc2ccc(NS(=O)(=O)c3ccc4c(c3)CC(=O)N4C)c(F)c2)c2cccc(C(F)(F)F)c2n1 [Example C19, 1-Methyl-2-oxo-2,3-dihydro-1H-indole-5-sulfonic acid [2-fluoro-4-(2-methyl-8-trifluoro-methyl-quinolin-4-yloxy)-phenyl]-amide]
20 | 240 to 242 | > 10 | COc1cc2nccc(Oc3ccc(NS(=O)(=O)c4ccc(OC)c5ccccc45)cc3)c2cc1OC [Example A133, 4-Methoxy-naphthalene-1-sulfonic acid [4-(6,7-dimethoxy-quinolin-4-yloxy)-phenyl]-amide]
21 | 204 to 205 | > 3 | COc1cc2nccc(Oc3ccc(NS(=O)(=O)Cc4ccccc4)c(F)c3)c2cc1OC [Example A73, N-[4-(6,7-Dimethoxy-quinolin-4-yloxy)-2-fluoro-phenyl]-C-phenyl-methanesulfonamide]
22 | 232 to 234 | 0.5 | COc1cc2nccc(Oc3ccc(NS(=O)(=O)c4cc(Cl)cc(Cl)c4O)c(F)c3)c2cc1OC [Example A5, 3,5-Dichloro-N-[4-(6,7-dimethoxy-quinolin-4-yloxy)-2-fluoro-phenyl]-2-hydroxy-benzenesulfonamide]
23 | 206 to 208 | > 3 | COc1cc2nccc(Oc3ccc(NS(=O)(=O)c4cc(Cl)cc(Cl)c4OC)cc3C)c2cc1OC [Example A127, 3,5-Dichloro-N-[4-(6,7-dimethoxy-quinolin-4-yloxy)-3-methyl-phenyl]-2-methoxy-benzenesulfonamide]
24 | 226 to 227 | > 10 | COc1ccc(S(=O)(=O)Nc2ccc(Oc3ccnc4cc(OC)c(OC)cc34)cc2)cc1Cl [Example A67, 3-Chloro-N-[4-(6,7-dimethoxy-quinolin-4-yloxy)-phenyl]-4-methoxy-benzenesulfonamide]
25 | 115 to 117 | > 10 | COc1cc2nccc(Oc3ccc(NS(=O)(=O)c4cccc(Oc5ccccc5)c4)cc3C)c2cc1OC [Example A76, N-[4-(6,7-Dimethoxy-quinolin-4-yloxy)-3-methyl-phenyl]-3-phenoxy-benzenesulfonamide]
26 | 160 to 162 | 0.477 | CCCS(=O)(=O)Nc1ccc(Oc2ccnc3cc(OCCCN4CCC(C)CC4)c(OC)cc23)c(F)c1 [Example D22, Propane-1-sulfonic acid (3-fluoro-4-{6-methoxy-7-[3-(4-methyl-piperidin-1-yl)-propoxy]-quinolin-4-yloxy}-phenyl)-amide]
27 | 135 to 137 | > 10 | COc1cc2nccc(Oc3ccc(NS(=O)(=O)c4cccc(-c5ncccn5)c4)cc3OC)c2cc1OC [Example A143, N-[4-(6,7-Dimethoxy-quinolin-4-yloxy)-3-methoxy-phenyl]-3-pyrimidin-2-yl-benzenesulfonamide]
